This note sets out measurements from patent US20240132492A1, “PYRIDOPYRIMIDINE-BASED COMPOUND AND APPLICATION THEREOF” (JINAN UNIVERSITY, priority 2021, published 2024).

Common to all, as to format: cell-based
One test has as its target T1, AKT1 (Homo sapiens, UniProt P31749).
T1 construct: AKT1, AKT2, and AKT3 proteins in H1975-OR cells; endogenous in cells; host or cells: H1975-OR (osimertinib-resistant H1975)
The test can be described thus: Western Blot, degradation of AKT1 protein in H1975-OR cells. The settings on record: 1000 nM, 24 hours, maximum degradation rate. In short, it runs like this:
(§1)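 H1975-OR cells are Osimertinib-resistant H1975, adapted stepwise from 50 nM to 3 μM Osimertinib. Cells were treated with compound for 24 h, lysed, and immunoblotted with ECL detection. Band grayscale density was quantified.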
(In general: A western blot detects proteins with antibodies after separation by electrophoresis.)

For another test, the target named is T2, AKT2 (Homo sapiens, UniProt P31751).
T2 construct: AKT1, AKT2, and AKT3 proteins in H1975-OR cells; endogenous in cells; host or cells: H1975-OR (osimertinib-resistant H1975)
T2 sequence (P31751 whole entry): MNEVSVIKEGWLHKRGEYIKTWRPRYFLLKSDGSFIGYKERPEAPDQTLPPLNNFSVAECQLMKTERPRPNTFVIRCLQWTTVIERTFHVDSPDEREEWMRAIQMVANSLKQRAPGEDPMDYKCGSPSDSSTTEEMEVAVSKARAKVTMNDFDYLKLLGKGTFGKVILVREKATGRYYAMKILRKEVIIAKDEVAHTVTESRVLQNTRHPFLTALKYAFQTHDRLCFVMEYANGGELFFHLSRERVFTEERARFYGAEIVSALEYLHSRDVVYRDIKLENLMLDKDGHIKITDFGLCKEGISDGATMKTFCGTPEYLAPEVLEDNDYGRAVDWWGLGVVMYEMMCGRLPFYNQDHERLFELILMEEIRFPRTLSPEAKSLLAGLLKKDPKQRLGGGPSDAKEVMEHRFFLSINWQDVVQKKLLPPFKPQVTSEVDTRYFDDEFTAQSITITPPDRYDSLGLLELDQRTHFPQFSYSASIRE
Kind of test: Western Blot, degradation of AKT2 protein in H1975-OR cells. The settings on record: 1000 nM, 24 hours, maximum degradation rate. The procedure, abridged:
as §1

The test system of another test is AKT1/2. The test can be described thus: Immunoblotting, AKT1/2 protein levels in other tumor cells (H1975, PC-9, H1299, A549). Conditions: H1975, PC-9, H1299 and A549 cells, different concentrations, 24 hours. As to the method: (§2) Conventional Western Blot (immunoblotting) was used for detection, as follows: a certain number of H1975-OR cells were planted on a 96 well plate, adherent cultured in an incubator overnight, and added a certain concentration of compound to act for 24 hours. 1×SDS lysis buffer with protease and phosphatase inhibitors was used to lyse cells. Cell lysates were separated by SDS-PAGE and transferred to PVDF membrane. Then, at room temperature, the PCDF membrane was taken out and immersed in a sealing solution (5% BSA TBS solution containing 0.5% Tween-20) for sealing treatment for 1 hour, and then incubated with a specific primary antibody at 4° C. overnight. The imprints were washed with TBST and incubated with horseradish peroxidase (HRP) labeled secondary antibodies at room temperature for 2 hours. Finally, ECL plus fluorescence detection reagent (Thermo Scientific, Waltham, MA) was used for protein development, and the Amersham Imager 600 system (GE, America) was used for photography. The detection results were processed using ImageJ software to obtain the grayscale value G (Density).
(§3) Tumor cells ([…], and A549) was incubated with different concentrations of compound ZX-HYT-11 for 24 hours, and then analyzed the protein levels of AKT1/2/3 using immunoblotting method as described in Embodiment 105.

For the next test, the system named is H1975. Kind of test: CCK-8 tumor cell proliferation, H1975. The settings on record: Homo sapiens, NCI-H1975, H1975 cells, 72 hours. In short, it runs like this:
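Cells seeded at 2000-3000/well, incubated overnight, then treated with compound (0.000508 μM-10 μM) for 72 h. Proliferation measured by CCK-8. IC50 fitted from concentration-response curves and reported as mean ± SD.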

The subject of the next test is H1975OR. The test can be described thus: CCK-8 tumor cell proliferation, H1975OR. Conditions: H1975OR cells (Osimertinib resistant), 72 hours. In short, it runs like this:
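Osimertinib-resistant H1975 cells, selected by raising Osimertinib stepwise from 50 nM to 3 μM, were treated for 72 h with compound at 0.000508–10 μM. Proliferation was read by CCK-8, and IC50 came from fitting the concentration–response curve, given as mean ± SD.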

A further test relates to PC-9. The test can be described thus: CCK-8 tumor cell proliferation, PC-9. The settings on record: Homo sapiens, PC-9 cells, 72 hours. Here is the method: (§4) Tumor cells (see Table 2 to Table 5) were inoculated in 96-well plates in complete culture medium (2000-3000 cells/well). After overnight incubation, the compounds with different concentrations (0.000508 μM-10 μM) were used to treat the cells separately for 72 hours. CCK-8 (Cell Counting Kit 8, Dojindo Laboratories, Kumamoto, Japan) experiment was used to evaluate cell proliferation. GraphPad Prism 5.0 software (La Jolla, CA) was used to calculate the half-maximal inhibitory concentration (IC50) values by fitting the concentration response curve. Each IC50 value was represented as an average value±SD.

Another test deals with A431. The test can be described thus: CCK-8 tumor cell proliferation, A431. Conditions: Homo sapiens, A-431, A431 cells, 72 hours. Here is the method: as §4
The subject of another test is HCC827. The test can be described thus: CCK-8 tumor cell proliferation, HCC827. The settings on record: Homo sapiens, HCC827 cells, 72 hours. Here is the method:
as §4

Another test deals with H1299. Kind of test: CCK-8 tumor cell proliferation, H1299. Conditions: Homo sapiens, NCI-H1299, H1299 cells, 72 hours. As to the method: as §4
Another test concerns MDA-MB-231. Kind of test: CCK-8 tumor cell proliferation, MDA-MB-231. The settings on record: Homo sapiens, MDA-MB-231 cells, 72 hours. Here is the method:
as §4

For a further test, the system named is MDA-MB-453. The test can be described thus: CCK-8 tumor cell proliferation, MDA-MB-453. The settings on record: Homo sapiens, MDA-MB-453 cells, 72 hours. As to the method:
as §4

The test system of the next test is BT-549. The test can be described thus: CCK-8 tumor cell proliferation, BT-549. The settings on record: Homo sapiens, BT-549 cells, 72 hours. Here is the method:
as §4

The test system of a further test is Bel-7402. Kind of test: CCK-8 tumor cell proliferation, Bel-7402. Conditions: Homo sapiens, Bel-7402 cells, 72 hours. Here is the method:
as §4

A further test deals with Huh7. Kind of test: CCK-8 tumor cell proliferation, Huh7. Conditions: Homo sapiens, Huh-7, Huh7 cells, 72 hours. As to the method: as §4
The next test relates to HCC1937. Kind of test: CCK-8 tumor cell proliferation, HCC1937. The settings on record: Homo sapiens, HCC1937 cells, 72 hours. Here is the method: as §4
The target in test [1] is T3, AKT3 (Homo sapiens, UniProt Q9Y243). Kind of test: Western Blot, degradation of AKT3 protein in H1975-OR cells. Conditions: 1000 nM, 24 hours, maximum degradation rate. More on the design: endogenous in cells; host or cells: H1975-OR (osimertinib-resistant H1975). The procedure, abridged: as §1
T3 sequence (Q9Y243 whole entry): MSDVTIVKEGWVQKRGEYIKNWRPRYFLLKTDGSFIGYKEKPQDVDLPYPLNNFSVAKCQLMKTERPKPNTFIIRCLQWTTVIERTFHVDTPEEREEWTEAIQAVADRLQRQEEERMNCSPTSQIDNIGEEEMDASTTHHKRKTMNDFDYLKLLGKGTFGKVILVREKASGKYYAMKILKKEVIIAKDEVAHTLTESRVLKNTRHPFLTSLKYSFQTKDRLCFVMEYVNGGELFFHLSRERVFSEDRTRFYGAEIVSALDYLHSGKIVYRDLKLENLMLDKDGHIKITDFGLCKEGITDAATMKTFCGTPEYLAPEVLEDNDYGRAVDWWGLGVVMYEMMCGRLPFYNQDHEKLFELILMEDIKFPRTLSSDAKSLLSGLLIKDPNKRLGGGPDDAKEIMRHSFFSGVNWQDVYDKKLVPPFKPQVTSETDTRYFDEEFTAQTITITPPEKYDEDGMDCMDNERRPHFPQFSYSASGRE
Test [2] addresses T3, AKT3. The test can be described thus: Immunoblotting, AKT3 protein level in other tumor cells (H1975, PC-9, H1299, A549). The arrangement: analyzed the protein levels of AKT1/2/3 using immunoblotting method as described in Embodiment 105; endogenous in cells; host or cells: H1975, PC-9, H1299, A549. The settings on record: H1975, PC-9, H1299 and A549 cells, different concentrations, 24 hours. Here is the method: as §2, §3

For a further test, the system named is A549. The test can be described thus: CCK-8 tumor cell proliferation, A549. Conditions: Homo sapiens, A549 cells, 72 hours. As to the method: as §4
For a further test, the system named is HCT116. Kind of test: CCK-8 tumor cell proliferation, HCT116. The settings on record: Homo sapiens, HCT-116, HCT116 cells, 72 hours. Here is the method: as §4
The test system of a further test is K562. The test can be described thus: CCK-8 tumor cell proliferation, K562. Conditions: Homo sapiens, K562 cells, 72 hours. Here is the method:
as §4

The next test has as its system MIAPACA-2. Kind of test: CCK-8 tumor cell proliferation, MIAPACA-2. Conditions: Homo sapiens, MIA PaCa-2, MIAPACA-2 cells, 72 hours. Here is the method: as §4
The next test deals with PANC-1. The test can be described thus: CCK-8 tumor cell proliferation, PANC-1. Conditions: Homo sapiens, PANC-1 cells, 72 hours. As to the method:
as §4

The next test relates to BXPC-3. Kind of test: CCK-8 tumor cell proliferation, BXPC-3. The settings on record: Homo sapiens, BXPC-3 cells, 72 hours. As to the method:
as §4

T1 sequence (P31749 whole entry): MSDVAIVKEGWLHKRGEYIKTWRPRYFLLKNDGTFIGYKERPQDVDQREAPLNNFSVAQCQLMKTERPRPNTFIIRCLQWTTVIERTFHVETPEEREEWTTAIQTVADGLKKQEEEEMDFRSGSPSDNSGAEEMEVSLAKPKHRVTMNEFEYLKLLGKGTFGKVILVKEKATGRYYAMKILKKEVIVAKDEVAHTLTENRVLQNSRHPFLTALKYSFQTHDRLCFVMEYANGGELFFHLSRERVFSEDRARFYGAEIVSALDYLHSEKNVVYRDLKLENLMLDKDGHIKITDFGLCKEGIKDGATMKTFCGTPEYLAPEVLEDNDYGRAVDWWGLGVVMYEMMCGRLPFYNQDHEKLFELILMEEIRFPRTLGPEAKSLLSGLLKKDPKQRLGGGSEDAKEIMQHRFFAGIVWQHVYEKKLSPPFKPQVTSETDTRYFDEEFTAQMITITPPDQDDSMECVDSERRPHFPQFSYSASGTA

The Dmax is the largest share of the target that was removed. Read a high Dmax as a fuller loss of target. By IC50 is commonly meant the midpoint of a concentration-inhibition curve. Take `COc1cc(N2CCN(CCCCCCCCCCCCNC(=O)CC34CC5CC(CC(C5)C3)C4)CC2)ccc1Nc1ncc2c(C)cc(=O)n(-c3cccc(NC(=O)C4CC4)c3)c2n1` [ZX-HYT-11, N-(3-(2-((4-(4-(12-(2-(((3R, 5R, 7R)-adamantan-1-yl)acetylamino)dodecyl)piperazin-1-yl)-2-methoxyphenyl)amino)-5-methyl-7-oxypyridino [2,3-d]pyrimidin-8 (7H)-yl)phenyl)cyclopropane formamide]: the Dmax at 1 µM on AKT1 came to 0%; at AKT2 it was 15.3%; on AKT3 [1], 91.1%. Further, the “effect on AKT1/2 protein levels” value in the test on AKT1/2 is “without affecting AKT1/2”. Moreover, the IC50 with H1975 is 2.39 ± 2 µM; in the test with H1975OR, 0.007 ± 0.0006 µM; with PC-9, 0.0839 ± 0.0135 µM; with A431 it was 0.0093 ± 0.0004 µM; in the test with HCC827 it was 0.0932 ± 0.014 µM; with H1299, 0.27 ± 0.0723 µM. The IC50 in the test with MDA-MB-231 was 0.0294 µM; in the test on MDA-MB-453 it was greater than 10 µM; in the test on BT-549 it was greater than 10 µM; with Bel-7402 it was greater than 10 µM; in the test with Huh7 it was 0.686 µM; in the test with HCC1937, greater than 10 µM. For the same compound, the “degradation of AKT3 protein” value on AKT3 [2] is “could selectively degrade AKT3 protein”.
For `COc1cc(N2CCN(C(=O)CC34CC5CC(CC(C5)C3)C4)CC2)ccc1Nc1ncc2c(C)cc(=O)n(-c3cccc(NC(=O)C4CC4)c3)c2n1` [ZX-HYT-50, N-(3-(2-((4-(4-(2-((3R, 5R, 7R)-adamantan-1-yl)acetyl)piperazin-1-yl)-2-methoxyphenyl)amino)-5-methyl-7-oxypyridino [2,3-d]pyrimidin-8 (7H)-yl)phenyl) cyclopropane formamide], the IC50 in the test with MDA-MB-231 is 0.155 µM; in the test on MDA-MB-453, greater than 10 µM; with BT-549, greater than 10 µM; in the test with Bel-7402, greater than 10 µM; in the test on Huh7, 0.632 µM; in the test with HCC1937, greater than 10 µM. In addition, the IC50 with A549 was 0.668 µM; in the test with HCT116 it was 0.0119 µM; with K562, 0.0293 µM; in the test on MIAPACA-2, 0.00864 µM; with PANC-1, 0.0137 µM; in the test on BXPC-3, 0.0421 µM.
Consider `COc1cc(N2CCN(CCNC(=O)CC34CC5CC(CC(C5)C3)C4)CC2)ccc1Nc1ncc2c(C)cc(=O)n(-c3cccc(NC(=O)C4CC4)c3)c2n1` [ZX-HYT-51, N-(3-(2-((4-(4-(2-(2-((3R, 5R, 7R)-adamantan-1-yl)acetylamino)ethyl)piperazin-1-yl)-2-methoxyphenyl))amino)-5-methyl-7-oxypyridino [2,3-d]pyrimidin-8 (7H)-yl) phenyl) cyclopropane formamide], for which the IC50 is 0.145 µM with MDA-MB-231; greater than 10 µM in the test with MDA-MB-453; 0.644 µM with BT-549; greater than 3 µM with Bel-7402; greater than 10 µM in the test with Huh7; greater than 10 µM with HCC1937. For the same compound, the concentration for half-maximal inhibition (IC50) is 0.629 µM in the test on A549; 0.0553 µM with HCT116; 0.263 µM in the test with K562; 0.0513 µM in the test on MIAPACA-2; 0.125 µM in the test on PANC-1; 0.333 µM with BXPC-3.
`COc1cc(N2CCN(CCCCNC(=O)CC34CC5CC(CC(C5)C3)C4)CC2)ccc1Nc1ncc2c(C)cc(=O)n(-c3cccc(NC(=O)C4CC4)c3)c2n1` [ZX-HYT-52, N-(3-(2-((4-(4-(4-(2-((3R, 5R, 7R)-adamantan-1-yl)acetylamino)butyl)piperazin-1-yl)-2-methoxyphenyl))amino)-5-methyl-7-oxypyridino [2,3-d]pyrimidin-8 (7H)-yl) phenyl) cyclopropane formamide]: the IC50 in the test on MDA-MB-231 is 1.99 µM; with MDA-MB-453, 2.5 µM; with BT-549, 0.478 µM; in the test with Bel-7402, 0.568 µM; in the test on Huh7, 1.35 µM; in the test on HCC1937 it was 0.002 to 0.005 µM. Moreover, the IC50 is 0.833 µM in the test with A549; 0.104 µM in the test on HCT116; 0.25 µM with K562; 0.0721 µM in the test with MIAPACA-2; 0.126 µM in the test on PANC-1; 0.303 µM in the test with BXPC-3.
For `COc1cc(N2CCN(C(=O)C34CC5CC(CC(C5)C3)C4)CC2)ccc1Nc1ncc2c(C)cc(=O)n(-c3cccc(NC(=O)C4CC4)c3)c2n1` [ZX-HYT-65, N-(3-(2-((4-(4-((3R, 5R, 7R)-adamantan-1-carbonyl)piperazin-1-yl)-2-methoxyphenyl)amino)-5-methyl-7-oxypyridino [2,3-d]pyrimidin-8 (7H)-yl)phenyl) cyclopropane formamide], the IC50 is 0.104 µM in the test on MDA-MB-231; greater than 10 µM in the test with MDA-MB-453; greater than 10 µM in the test with BT-549; greater than 10 µM in the test with Bel-7402; 0.335 µM with Huh7; greater than 10 µM with HCC1937. The IC50 in the test on A549 was 1.17 µM; in the test with HCT116, 0.0729 µM; with K562, 0.234 µM; in the test on MIAPACA-2, 0.0511 µM; in the test on PANC-1, 0.179 µM; with BXPC-3 it was 0.447 µM.
